Data as given in US9896512B2, “Antitumor peptide derived from a complementarity determining region of a humanized monoclonal antibody to NAP12B transporter” (Recepta Biopharma S.A., priority 2010, dated 2018).
Entries after “also recorded” stand apart in the source; their conditions may differ.

Experiments:
[1] = system: B16F10-Nex2 cells; test: Tumor cell invasion through Matrigel (Transwell); assay type: cell-based, murine; set-up: inhibition of cell invasion: dose or concentration left out as unconfirmed; settings: 24 hours
Protocol: […] As a chemoattractant, 10% FCS in RPMI was used in the transwell lower chamber. After 24 hours at 37° C. in humidified atmosphere with 5% CO2, non-invasive cells were excluded with a swab, and cells that crossed the membrane were fixed with methanol and stained with Giemsa. Cells were counted in each transwell membrane, and the numbers of invasive cells are expressed as percentages.

[2] = Peptide degradation by human plasma (HPLC / mass spectrum); assay type: in vitro ADME
Protocol: Peptides have variable half lives in the plasma due to the proteolytic activity and the renal filtration, which are relevant aspects in the pharmacokinetics of drug candidates.
To analyze the peptide in HPLC and Mass Spectrum, an aliquot of 200 μL was transferred to a new Eppendorf tube and proteins were precipitated with 20 μL trifluoroacetic acid for 5 minutes at 4° C. After centrifugation for 10 minutes at 14,000 rpm, the supernatant was analyzed in an LC/ESI-MS (Waters).
Regarding assays for determining time-lapse plasma degradation of RB9 peptide, peptide degradation by human plasma was monitored in HPLC and Mass spectra every 30 minutes as described above (FIG. 12). About 50% RB9 was cleaved after 2 hours of incubation at 37° C.

With `C[C@@H]1NC(=O)[C@H](CCCNC(=N)N)NC(=O)[C@H](C)NC(=O)[C@H]([C@@H](C)O)NC(=O)[C@H](CCC(=O)O)NC(=O)CNC(=O)[C@H](CCCNC(=N)N)NC(=O)[C@H](C)NC(=O)[C@@H](N)CSSC[C@@H](C(N)=O)NC(=O)CNC(=O)[C@H](CCC(N)=O)NC(=O)CNC(=O)[C@H](Cc2c[nH]c3ccccc23)NC(=O)[C@H](Cc2ccc(O)cc2)NC(=O)[C@H](C)NC(=O)[C@H](Cc2ccccc2)NC(=O)[C@H]([C@@H](C)O)NC1=O` [RB9, CARGETARATFAYWGQGC-NH2] as the compound, how does the “inhibition of cell invasion” value [1] read?
The value was 60%.

And the “inhibition of cell invasion through Matrigel, dose dependence” value ([1]; 10% FCS chemoattractant)?
The value was “dose-dependent inhibition”.

And the “degradation in human plasma at 24 hours” value ([2]; 24 hours, 37° C.)?
The value was “whole peptide was degraded; also recorded: total degradation”.

What about the “peptide cleaved / degraded in human plasma” value ([2]; after 2 hours of incubation at 37° C.) of the same compound?
Its value is 50%.

And the metabolised at 2 h, 1.67 mg/mL ([2]; human, human plasma, after 2 hours of incubation at 37° C., read-out: peptide cleaved / degraded in human plasma)?
Its metabolised at 2 h, 1.67 mg/mL is roughly 50%.
